Data published in the NIST ThermoML archive (doi:10.1021/je100765j).

Assay: xn = mol fraction of the nth substance listed
Settings: 101 kPa, Liquid; for speed of sound: Sing-around technique in a fixed-path interferometer

CC(C)CCl [1-chloro-2-methylpropane] + CC(C)OC(C)C
Settings	mass density [kg/m3]	speed of sound [m/s]
283.15 K, x1 = 0.0549	740.509	1069.1
283.15 K, x1 = 0.091	745.071	1071.7
283.15 K, x1 = 0.1977	758.96	1079.6
283.15 K, x1 = 0.2934	772.077	1087
283.15 K, x1 = 0.3911	785.941	1094.4
283.15 K, x1 = 0.5137	804.21	1103.7
283.15 K, x1 = 0.6034	818.258	1110.5
283.15 K, x1 = 0.6769	830.206	1116.2
283.15 K, x1 = 0.8059	852.473	1126.3
283.15 K, x1 = 0.9111	871.773	1134.7
283.15 K, x1 = 0.9646	881.981	1139
288.15 K, x1 = 0.0549	735.346	1046.8
288.15 K, x1 = 0.091	739.888	1049.4
288.15 K, x1 = 0.1977	753.737	1057.5
288.15 K, x1 = 0.2934	766.807	1064.8
288.15 K, x1 = 0.3911	780.617	1072.3
288.15 K, x1 = 0.5137	798.831	1081.8
288.15 K, x1 = 0.6034	812.821	1088.7
288.15 K, x1 = 0.6769	824.734	1094.5
288.15 K, x1 = 0.8059	846.936	1104.9
288.15 K, x1 = 0.9111	866.179	1113.5
288.15 K, x1 = 0.9646	876.368	1117.9
293.15 K, x1 = 0.0549	730.142	1024.4
293.15 K, x1 = 0.091	734.678	1027
293.15 K, x1 = 0.1977	748.467	1035.1
293.15 K, x1 = 0.2934	761.481	1042.6
293.15 K, x1 = 0.3911	775.245	1050.3
293.15 K, x1 = 0.5137	793.406	1059.9
293.15 K, x1 = 0.6034	807.35	1066.9
293.15 K, x1 = 0.6769	819.228	1072.8
293.15 K, x1 = 0.8059	841.356	1083.4
293.15 K, x1 = 0.9111	860.549	1092.2
293.15 K, x1 = 0.9646	870.717	1096.8
298.15 K, x1 = 0.0549	724.887	1002.1
298.15 K, x1 = 0.091	729.395	1004.7
298.15 K, x1 = 0.1977	743.114	1013
298.15 K, x1 = 0.2934	756.06	1020.5
298.15 K, x1 = 0.3911	769.763	1028.2
298.15 K, x1 = 0.5137	787.825	1038
298.15 K, x1 = 0.6034	801.699	1045.2
298.15 K, x1 = 0.6769	813.519	1051.2
298.15 K, x1 = 0.8059	835.53	1062
298.15 K, x1 = 0.9111	854.603	1071
298.15 K, x1 = 0.9646	864.749	1075.6
303.15 K, x1 = 0.0549	719.603	979.86
303.15 K, x1 = 0.091	724.11	982.53
303.15 K, x1 = 0.1977	737.798	990.87
303.15 K, x1 = 0.2934	750.738	998.49
303.15 K, x1 = 0.3911	764.421	1006.3
303.15 K, x1 = 0.5137	782.446	1016.2
303.15 K, x1 = 0.6034	796.305	1023.5
303.15 K, x1 = 0.6769	808.11	1029.7
303.15 K, x1 = 0.8059	830.111	1040.8
303.15 K, x1 = 0.9111	849.196	1050
303.15 K, x1 = 0.9646	859.307	1054.8
308.15 K, x1 = 0.0549	714.28	957.82
308.15 K, x1 = 0.091	718.759	960.52
308.15 K, x1 = 0.1977	732.397	968.88
308.15 K, x1 = 0.2934	745.3	976.54
308.15 K, x1 = 0.3911	758.935	984.48
308.15 K, x1 = 0.5137	776.901	994.58
308.15 K, x1 = 0.6034	790.719	1002
308.15 K, x1 = 0.6769	802.492	1008.2
308.15 K, x1 = 0.8059	824.422	1019.6
308.15 K, x1 = 0.9111	843.468	1029
308.15 K, x1 = 0.9646	853.542	1033.8
313.15 K, x1 = 0.0549	708.887	935.95
313.15 K, x1 = 0.091	713.334	938.67
313.15 K, x1 = 0.1977	726.882	947.16
313.15 K, x1 = 0.2934	739.693	954.94
313.15 K, x1 = 0.3911	753.227	963
313.15 K, x1 = 0.5137	771.077	973.17
313.15 K, x1 = 0.6034	784.802	980.73
313.15 K, x1 = 0.6769	796.487	987.04
313.15 K, x1 = 0.8059	818.264	998.57
313.15 K, x1 = 0.9111	837.168	1008.1
313.15 K, x1 = 0.9646	847.176	1013
